Measured values taken from ChEMBL document CHEMBL3991601, “The target landscape of clinical kinase drugs” (Science, 2017).
Calls of active or inactive are those of the source.

Key:
[1] = target: T1, NUAK family SNF1-like kinase 2 (Homo sapiens, UniProt Q9H093)
T1 sequence (Q9H093 whole entry): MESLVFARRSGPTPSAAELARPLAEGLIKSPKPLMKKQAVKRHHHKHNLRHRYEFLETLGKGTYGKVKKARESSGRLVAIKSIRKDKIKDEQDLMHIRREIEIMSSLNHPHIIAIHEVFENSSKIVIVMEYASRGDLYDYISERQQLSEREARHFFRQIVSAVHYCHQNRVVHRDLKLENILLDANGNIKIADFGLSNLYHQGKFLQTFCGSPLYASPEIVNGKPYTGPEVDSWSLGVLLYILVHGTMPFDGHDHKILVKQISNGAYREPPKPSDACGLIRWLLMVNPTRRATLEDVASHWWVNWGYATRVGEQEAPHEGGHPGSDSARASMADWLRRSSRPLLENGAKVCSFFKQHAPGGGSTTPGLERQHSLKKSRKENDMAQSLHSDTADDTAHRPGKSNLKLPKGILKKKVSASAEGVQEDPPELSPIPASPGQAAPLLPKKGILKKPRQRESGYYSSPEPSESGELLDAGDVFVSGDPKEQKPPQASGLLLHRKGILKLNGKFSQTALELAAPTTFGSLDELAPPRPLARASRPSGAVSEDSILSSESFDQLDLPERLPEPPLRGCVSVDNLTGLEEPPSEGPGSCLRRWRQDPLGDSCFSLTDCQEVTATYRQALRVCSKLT

[2] = target: T2, Electron transfer flavoprotein subunit beta (Homo sapiens, UniProt P38117)
T2 sequence (P38117 whole entry): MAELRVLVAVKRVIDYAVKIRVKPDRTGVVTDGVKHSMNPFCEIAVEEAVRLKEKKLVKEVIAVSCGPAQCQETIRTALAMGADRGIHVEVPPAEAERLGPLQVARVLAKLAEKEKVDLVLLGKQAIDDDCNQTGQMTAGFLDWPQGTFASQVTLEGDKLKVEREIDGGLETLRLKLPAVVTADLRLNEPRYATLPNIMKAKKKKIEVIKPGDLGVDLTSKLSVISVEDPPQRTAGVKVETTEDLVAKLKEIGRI

[3] = target: T3, Mitogen-activated protein kinase kinase kinase kinase 3 (Homo sapiens, UniProt Q8IVH8)
T3 sequence (Q8IVH8 whole entry): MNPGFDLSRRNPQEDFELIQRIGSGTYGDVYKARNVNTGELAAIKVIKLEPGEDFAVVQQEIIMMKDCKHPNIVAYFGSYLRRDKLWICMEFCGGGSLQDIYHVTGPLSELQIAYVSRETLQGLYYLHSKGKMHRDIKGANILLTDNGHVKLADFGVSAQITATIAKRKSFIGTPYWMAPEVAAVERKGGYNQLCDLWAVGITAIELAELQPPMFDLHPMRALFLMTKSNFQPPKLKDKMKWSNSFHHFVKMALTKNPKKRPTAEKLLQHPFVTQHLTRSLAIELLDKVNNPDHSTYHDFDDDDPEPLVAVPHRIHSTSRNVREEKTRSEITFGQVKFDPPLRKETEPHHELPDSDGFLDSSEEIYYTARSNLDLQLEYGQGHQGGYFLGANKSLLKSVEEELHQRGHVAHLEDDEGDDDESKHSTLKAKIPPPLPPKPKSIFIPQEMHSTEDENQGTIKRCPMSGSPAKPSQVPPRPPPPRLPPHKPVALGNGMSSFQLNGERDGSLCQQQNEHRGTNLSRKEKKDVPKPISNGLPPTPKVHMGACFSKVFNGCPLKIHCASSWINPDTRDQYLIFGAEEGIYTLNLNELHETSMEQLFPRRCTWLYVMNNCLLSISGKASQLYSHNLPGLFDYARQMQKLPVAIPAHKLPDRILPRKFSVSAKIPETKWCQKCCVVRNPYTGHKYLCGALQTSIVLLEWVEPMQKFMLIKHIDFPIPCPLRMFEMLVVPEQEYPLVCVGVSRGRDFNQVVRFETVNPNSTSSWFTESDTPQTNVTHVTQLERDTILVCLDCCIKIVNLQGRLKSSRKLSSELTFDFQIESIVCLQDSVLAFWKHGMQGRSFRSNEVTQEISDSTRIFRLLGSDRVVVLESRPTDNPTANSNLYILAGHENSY

[4] = target: Mitogen-activated protein kinase 8 (Homo sapiens, UniProt P45983)
[5] = target: Ribosomal protein S6 kinase alpha-1 (Homo sapiens, UniProt Q15418)
ADP/ATP translocase 3 = target: T4, ADP/ATP translocase 3 (Homo sapiens, UniProt P12236)
T4 sequence (P12236 whole entry): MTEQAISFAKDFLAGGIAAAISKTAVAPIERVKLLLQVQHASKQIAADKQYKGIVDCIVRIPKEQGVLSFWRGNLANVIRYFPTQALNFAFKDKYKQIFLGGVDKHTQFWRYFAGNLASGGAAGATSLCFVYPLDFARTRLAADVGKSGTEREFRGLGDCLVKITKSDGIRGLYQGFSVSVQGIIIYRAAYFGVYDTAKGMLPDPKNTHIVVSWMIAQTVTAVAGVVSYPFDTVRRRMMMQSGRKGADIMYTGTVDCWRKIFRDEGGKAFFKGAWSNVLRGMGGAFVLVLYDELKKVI

LIM domain kinase 1 = LIM domain kinase 1 (Homo sapiens, UniProt P53667)
[6] = target: Tyrosine-protein kinase Fer (Homo sapiens, UniProt P16591)
[7] = target: Serine/threonine-protein kinase SIK3 (Homo sapiens, UniProt Q9Y2K2)
[8] = target: Mitogen-activated protein kinase 11 (Homo sapiens, UniProt Q15759)
[9] = target: Tyrosine-protein kinase Fyn (Homo sapiens, UniProt P06241)
[10] = target: Inosine-5'-monophosphate dehydrogenase 2 (Homo sapiens, UniProt P12268)
[11] = target: BMP-2-inducible protein kinase (Homo sapiens, UniProt Q9NSY1)
[12] = target: T5, Adenine phosphoribosyltransferase (Homo sapiens, UniProt P07741)
T5 sequence (P07741 whole entry): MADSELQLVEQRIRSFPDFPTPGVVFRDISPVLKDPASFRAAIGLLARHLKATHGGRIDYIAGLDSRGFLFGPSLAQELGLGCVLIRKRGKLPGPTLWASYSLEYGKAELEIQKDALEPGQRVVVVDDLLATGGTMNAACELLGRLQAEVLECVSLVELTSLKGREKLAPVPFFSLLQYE

Adenosine kinase = Adenosine kinase (Homo sapiens, UniProt P55263)
[13] = target: Serine/threonine-protein kinase MRCK gamma (Homo sapiens, UniProt Q6DT37)
Note: in the data inactive means no Kd found up to 30 µM.

Sequence of Tyrosine-protein kinase Fer (P16591 whole entry): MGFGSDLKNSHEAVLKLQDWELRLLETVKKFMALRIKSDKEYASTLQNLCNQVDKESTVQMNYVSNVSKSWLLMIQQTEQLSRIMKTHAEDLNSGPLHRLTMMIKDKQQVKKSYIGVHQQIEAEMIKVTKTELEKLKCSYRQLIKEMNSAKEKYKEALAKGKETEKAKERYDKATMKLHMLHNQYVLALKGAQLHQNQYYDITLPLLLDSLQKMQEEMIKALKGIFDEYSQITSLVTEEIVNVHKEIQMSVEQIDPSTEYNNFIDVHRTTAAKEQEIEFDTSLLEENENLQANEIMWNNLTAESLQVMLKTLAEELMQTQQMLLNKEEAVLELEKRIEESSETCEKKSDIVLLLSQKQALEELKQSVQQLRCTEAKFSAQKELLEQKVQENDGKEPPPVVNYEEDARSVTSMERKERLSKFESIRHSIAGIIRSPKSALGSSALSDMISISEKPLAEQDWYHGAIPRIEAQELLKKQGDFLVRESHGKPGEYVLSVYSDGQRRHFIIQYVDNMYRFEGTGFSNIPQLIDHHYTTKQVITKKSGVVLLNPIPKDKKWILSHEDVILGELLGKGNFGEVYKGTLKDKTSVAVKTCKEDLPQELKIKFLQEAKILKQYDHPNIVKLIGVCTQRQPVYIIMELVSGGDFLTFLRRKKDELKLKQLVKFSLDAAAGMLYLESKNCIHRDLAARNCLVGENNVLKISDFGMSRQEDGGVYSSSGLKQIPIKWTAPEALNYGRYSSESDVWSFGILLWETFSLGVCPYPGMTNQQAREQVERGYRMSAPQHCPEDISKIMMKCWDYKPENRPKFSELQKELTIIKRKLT
Sequence of Tyrosine-protein kinase Fyn (P06241 whole entry): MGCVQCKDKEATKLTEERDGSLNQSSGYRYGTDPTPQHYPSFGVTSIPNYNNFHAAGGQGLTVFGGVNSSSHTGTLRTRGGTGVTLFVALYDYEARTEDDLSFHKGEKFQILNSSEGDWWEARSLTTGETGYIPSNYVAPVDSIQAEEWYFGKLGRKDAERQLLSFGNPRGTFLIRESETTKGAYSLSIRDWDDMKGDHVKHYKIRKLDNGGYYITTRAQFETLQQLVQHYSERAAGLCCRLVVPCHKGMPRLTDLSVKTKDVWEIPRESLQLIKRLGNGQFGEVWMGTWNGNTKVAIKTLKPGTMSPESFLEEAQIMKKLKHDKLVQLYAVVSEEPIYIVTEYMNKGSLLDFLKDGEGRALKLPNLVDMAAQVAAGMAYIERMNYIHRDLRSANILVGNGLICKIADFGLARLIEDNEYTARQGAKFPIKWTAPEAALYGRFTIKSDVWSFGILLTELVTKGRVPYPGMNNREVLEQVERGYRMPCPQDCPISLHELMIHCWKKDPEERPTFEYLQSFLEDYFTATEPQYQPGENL
Sequence of Serine/threonine-protein kinase SIK3 (Q9Y2K2 whole entry): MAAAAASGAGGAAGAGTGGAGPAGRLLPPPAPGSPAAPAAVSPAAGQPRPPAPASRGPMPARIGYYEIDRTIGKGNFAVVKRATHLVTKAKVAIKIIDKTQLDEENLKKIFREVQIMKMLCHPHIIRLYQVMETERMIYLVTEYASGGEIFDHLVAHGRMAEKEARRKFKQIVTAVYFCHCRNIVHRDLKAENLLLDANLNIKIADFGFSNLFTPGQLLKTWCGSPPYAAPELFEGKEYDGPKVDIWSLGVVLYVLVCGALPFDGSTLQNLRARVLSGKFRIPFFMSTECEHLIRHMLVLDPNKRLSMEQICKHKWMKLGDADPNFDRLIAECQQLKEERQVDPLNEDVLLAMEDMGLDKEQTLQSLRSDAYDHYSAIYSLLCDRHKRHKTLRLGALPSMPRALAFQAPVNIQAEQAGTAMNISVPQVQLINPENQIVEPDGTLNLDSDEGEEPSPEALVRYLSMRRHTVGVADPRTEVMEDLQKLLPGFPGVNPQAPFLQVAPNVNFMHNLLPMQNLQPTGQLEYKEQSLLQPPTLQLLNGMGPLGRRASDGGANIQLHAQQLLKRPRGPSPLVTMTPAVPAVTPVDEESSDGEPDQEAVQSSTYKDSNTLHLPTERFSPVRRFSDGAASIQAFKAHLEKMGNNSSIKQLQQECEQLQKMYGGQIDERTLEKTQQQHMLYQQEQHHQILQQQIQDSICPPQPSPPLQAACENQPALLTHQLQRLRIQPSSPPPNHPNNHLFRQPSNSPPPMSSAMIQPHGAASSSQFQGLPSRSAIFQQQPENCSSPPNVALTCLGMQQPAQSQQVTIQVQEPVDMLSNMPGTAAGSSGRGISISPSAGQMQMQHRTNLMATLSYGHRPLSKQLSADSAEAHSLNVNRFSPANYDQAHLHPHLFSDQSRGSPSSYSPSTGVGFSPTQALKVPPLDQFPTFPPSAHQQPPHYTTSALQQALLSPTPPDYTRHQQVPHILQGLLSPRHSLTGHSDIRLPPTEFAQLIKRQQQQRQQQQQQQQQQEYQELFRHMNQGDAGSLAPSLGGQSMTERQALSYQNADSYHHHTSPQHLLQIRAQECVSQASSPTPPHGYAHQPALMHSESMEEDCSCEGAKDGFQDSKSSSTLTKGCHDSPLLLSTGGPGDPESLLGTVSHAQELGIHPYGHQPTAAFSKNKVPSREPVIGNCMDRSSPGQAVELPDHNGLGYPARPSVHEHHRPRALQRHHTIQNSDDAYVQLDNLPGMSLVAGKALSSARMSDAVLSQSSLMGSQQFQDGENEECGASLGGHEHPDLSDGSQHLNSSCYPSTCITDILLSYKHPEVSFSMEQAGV
Sequence of Mitogen-activated protein kinase 8 (P45983 whole entry): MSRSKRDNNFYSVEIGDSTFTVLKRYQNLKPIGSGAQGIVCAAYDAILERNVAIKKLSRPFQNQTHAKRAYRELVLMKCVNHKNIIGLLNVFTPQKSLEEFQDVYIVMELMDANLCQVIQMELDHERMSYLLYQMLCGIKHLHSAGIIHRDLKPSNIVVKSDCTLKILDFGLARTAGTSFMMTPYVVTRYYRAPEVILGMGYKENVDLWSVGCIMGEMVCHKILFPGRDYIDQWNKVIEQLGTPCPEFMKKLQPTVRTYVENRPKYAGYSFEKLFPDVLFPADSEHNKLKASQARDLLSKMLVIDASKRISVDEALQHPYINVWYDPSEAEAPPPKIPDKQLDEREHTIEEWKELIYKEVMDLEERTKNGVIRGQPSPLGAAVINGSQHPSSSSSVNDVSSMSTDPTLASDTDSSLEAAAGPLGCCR
Sequence of BMP-2-inducible protein kinase (Q9NSY1 whole entry): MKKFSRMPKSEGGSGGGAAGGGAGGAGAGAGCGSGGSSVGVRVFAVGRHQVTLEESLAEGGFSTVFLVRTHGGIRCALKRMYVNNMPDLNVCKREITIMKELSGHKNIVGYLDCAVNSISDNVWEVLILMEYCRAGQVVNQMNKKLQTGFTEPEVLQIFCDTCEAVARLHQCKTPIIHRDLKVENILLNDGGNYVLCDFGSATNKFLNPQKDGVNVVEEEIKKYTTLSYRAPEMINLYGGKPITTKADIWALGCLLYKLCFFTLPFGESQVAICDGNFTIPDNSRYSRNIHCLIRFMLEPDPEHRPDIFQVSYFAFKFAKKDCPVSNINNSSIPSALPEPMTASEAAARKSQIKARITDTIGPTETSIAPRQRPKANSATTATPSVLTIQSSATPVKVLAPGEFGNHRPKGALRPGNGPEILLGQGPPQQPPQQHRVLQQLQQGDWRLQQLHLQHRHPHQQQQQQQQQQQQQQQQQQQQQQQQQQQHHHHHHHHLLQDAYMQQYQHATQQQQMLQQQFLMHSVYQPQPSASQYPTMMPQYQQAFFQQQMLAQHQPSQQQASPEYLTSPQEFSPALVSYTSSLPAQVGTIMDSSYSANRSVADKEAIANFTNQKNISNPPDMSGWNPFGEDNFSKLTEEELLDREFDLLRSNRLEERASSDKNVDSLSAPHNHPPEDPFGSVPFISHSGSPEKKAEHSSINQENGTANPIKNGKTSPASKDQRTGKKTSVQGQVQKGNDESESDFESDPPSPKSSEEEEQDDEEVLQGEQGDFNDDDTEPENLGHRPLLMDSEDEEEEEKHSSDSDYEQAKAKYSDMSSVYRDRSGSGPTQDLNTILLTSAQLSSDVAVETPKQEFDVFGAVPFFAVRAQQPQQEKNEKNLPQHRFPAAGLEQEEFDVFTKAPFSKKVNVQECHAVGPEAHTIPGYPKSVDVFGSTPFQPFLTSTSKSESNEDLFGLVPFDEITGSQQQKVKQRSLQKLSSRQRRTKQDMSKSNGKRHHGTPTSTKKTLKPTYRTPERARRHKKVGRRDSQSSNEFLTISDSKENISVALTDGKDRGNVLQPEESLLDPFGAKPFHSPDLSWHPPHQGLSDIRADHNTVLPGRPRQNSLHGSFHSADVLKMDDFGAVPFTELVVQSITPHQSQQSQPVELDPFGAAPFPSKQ
Sequence of Ribosomal protein S6 kinase alpha-1 (Q15418 whole entry): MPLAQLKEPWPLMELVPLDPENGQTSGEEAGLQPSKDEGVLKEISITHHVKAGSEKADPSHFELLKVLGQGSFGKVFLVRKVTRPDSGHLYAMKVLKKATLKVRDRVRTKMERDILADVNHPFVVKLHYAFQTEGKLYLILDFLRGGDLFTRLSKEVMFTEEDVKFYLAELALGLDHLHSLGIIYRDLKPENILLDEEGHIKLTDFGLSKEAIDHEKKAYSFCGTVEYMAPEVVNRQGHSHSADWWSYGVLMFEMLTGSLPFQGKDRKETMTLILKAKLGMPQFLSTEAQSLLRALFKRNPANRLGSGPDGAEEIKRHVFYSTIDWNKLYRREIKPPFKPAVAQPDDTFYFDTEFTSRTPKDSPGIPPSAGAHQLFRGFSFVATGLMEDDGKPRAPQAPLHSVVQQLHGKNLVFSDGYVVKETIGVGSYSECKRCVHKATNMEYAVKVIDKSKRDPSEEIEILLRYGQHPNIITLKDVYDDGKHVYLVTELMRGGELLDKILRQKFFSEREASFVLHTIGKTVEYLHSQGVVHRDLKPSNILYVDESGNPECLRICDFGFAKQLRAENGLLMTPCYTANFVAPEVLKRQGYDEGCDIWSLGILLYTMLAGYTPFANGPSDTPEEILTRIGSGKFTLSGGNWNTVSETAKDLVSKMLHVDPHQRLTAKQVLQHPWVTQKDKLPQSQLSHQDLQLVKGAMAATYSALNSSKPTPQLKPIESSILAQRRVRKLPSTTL

Row | Kd [1] | Kd [2] | Kd [3] | Kd [4] | Kd [5] | Kd (ADP/ATP translocase 3) | Kd (LIM domain kinase 1) | Kd [6] | Kd [7] | Kd [8] | Kd [9] | Kd [10] | Kd [11] | Kd [12] | Kd (Adenosine kinase) | Kd [13] | Structure (SMILES)
1 | > 30 µM (inactive) | > 30 µM (inactive) | > 30 µM (inactive) | > 30 µM (inactive) | > 30 µM (inactive) | > 30 µM (inactive) | > 30 µM (inactive) | > 30 µM (inactive) | > 30 µM (inactive) | > 30 µM (inactive) | > 30 µM (inactive) | > 30 µM (inactive) | > 30 µM (inactive) | > 30 µM (inactive) | > 30 µM (inactive) | > 30 µM (inactive) | COc1cccc2cc(-c3nc([C@H]4CC[C@H](C(=O)O)CC4)n4ncnc(N)c34)[nH]c12 [OSI-027]
2 | > 30 µM (inactive) | > 30 µM (inactive) | > 30 µM (inactive) | > 30 µM (inactive) | > 30 µM (inactive) | > 30 µM (inactive) | > 30 µM (inactive) | > 30 µM (inactive) | > 30 µM (inactive) | > 30 µM (inactive) | > 30 µM (inactive) | > 30 µM (inactive) | > 30 µM (inactive) | > 30 µM (inactive) | > 30 µM (inactive) | > 30 µM (inactive) | O=S(=O)(c1cccc2c(O)nccc12)N1CCCNCC1 [HYDROXYFASUDIL]
3 | > 30 µM (inactive) | > 30 µM (inactive) | > 30 µM (inactive) | > 30 µM (inactive) | > 30 µM (inactive) | > 30 µM (inactive) | > 30 µM (inactive) | 3.76 µM (active) | > 30 µM (inactive) | > 30 µM (inactive) | > 30 µM (inactive) | > 30 µM (inactive) | > 30 µM (inactive) | > 30 µM (inactive) | > 30 µM (inactive) | > 30 µM (inactive) | CCc1cc2c(cc1N1CCC(N3CCOCC3)CC1)C(C)(C)c1[nH]c3cc(C#N)ccc3c1C2=O [ALECTINIB]
4 | > 30 µM (inactive) | > 30 µM (inactive) | > 30 µM (inactive) | 2.01 µM (active) | > 30 µM (inactive) | > 30 µM (inactive) | > 30 µM (inactive) | > 30 µM (inactive) | > 30 µM (inactive) | > 30 µM (inactive) | > 30 µM (inactive) | > 30 µM (inactive) | > 30 µM (inactive) | > 30 µM (inactive) | > 30 µM (inactive) | > 30 µM (inactive) | COc1cc(Nc2ncc(F)c(Nc3ccc4c(n3)N(COP(=O)(O)O)C(=O)C(C)(C)O4)n2)cc(OC)c1OC [FOSTAMATINIB]
5 | > 30 µM (inactive) | > 30 µM (inactive) | > 30 µM (inactive) | > 30 µM (inactive) | > 30 µM (inactive) | > 30 µM (inactive) | > 30 µM (inactive) | > 30 µM (inactive) | > 30 µM (inactive) | > 30 µM (inactive) | > 30 µM (inactive) | > 30 µM (inactive) | > 30 µM (inactive) | > 30 µM (inactive) | > 30 µM (inactive) | > 30 µM (inactive) | Cc1ccc(C(=O)Nc2ccc(Oc3cc4cnn(C)c4cc3-c3cn[nH]c3)c(F)c2)c(=O)n1-c1ccc(F)cc1 [MERESTINIB]
6 | > 30 µM (inactive) | > 30 µM (inactive) | > 30 µM (inactive) | 0.636 µM (active) | > 30 µM (inactive) | > 30 µM (inactive) | > 30 µM (inactive) | > 30 µM (inactive) | > 30 µM (inactive) | > 30 µM (inactive) | > 30 µM (inactive) | > 30 µM (inactive) | 1.47 µM (active) | > 30 µM (inactive) | > 30 µM (inactive) | > 30 µM (inactive) | c1cc(OCCN2CCCCC2)cc(-c2n[nH]c3ccc(-c4nc[nH]n4)cc23)c1 [CC-401]
7 | > 30 µM (inactive) | > 30 µM (inactive) | > 30 µM (inactive) | > 30 µM (inactive) | > 30 µM (inactive) | > 30 µM (inactive) | > 30 µM (inactive) | > 30 µM (inactive) | > 30 µM (inactive) | > 30 µM (inactive) | > 30 µM (inactive) | > 30 µM (inactive) | > 30 µM (inactive) | > 30 µM (inactive) | > 30 µM (inactive) | > 30 µM (inactive) | O=C(NOC[C@H](O)CO)c1ccc(F)c(F)c1Nc1ccc(I)cc1F [MIRDAMETINIB]
8 | > 30 µM (inactive) | > 30 µM (inactive) | > 30 µM (inactive) | > 30 µM (inactive) | > 30 µM (inactive) | > 30 µM (inactive) | > 30 µM (inactive) | > 30 µM (inactive) | > 30 µM (inactive) | > 30 µM (inactive) | > 30 µM (inactive) | > 30 µM (inactive) | > 30 µM (inactive) | > 30 µM (inactive) | > 30 µM (inactive) | > 30 µM (inactive) | COc1cc2nccc(Oc3ccc(NC(=O)C4(C(=O)Nc5ccc(F)cc5)CC4)cc3)c2cc1OC [CABOZANTINIB]

Row | Structure (SMILES) | Kd [1] | Kd [2] | Kd [3] | Kd [4] | Kd [5] | Kd (ADP/ATP translocase 3) | Kd (LIM domain kinase 1) | Kd [6] | Kd [7] | Kd [8] | Kd [9] | Kd [10] | Kd [11] | Kd [12] | Kd (Adenosine kinase) | Kd [13]
9 | COCCN1CCN(Cc2ccc(-c3n[nH]c4c3C(=O)c3c(NC(=O)NN5CCOCC5)cccc3-4)cc2)CC1 [RGB-286638] | > 30 µM (inactive) | > 30 µM (inactive) | > 30 µM (inactive) | 0.731 µM (active) | > 30 µM (inactive) | > 30 µM (inactive) | > 30 µM (inactive) | > 30 µM (inactive) | > 30 µM (inactive) | > 30 µM (inactive) | > 30 µM (inactive) | > 30 µM (inactive) | 0.008 µM (active) | > 30 µM (inactive) | > 30 µM (inactive) | > 30 µM (inactive)
